Results published in patent US20110263693A1, “CELASTROL, GEDUNIN, AND DERIVATIVES THEREOF AS HSP90 INHIBITORS” (DANA-FARBER CANCER INSTITUTE, INC., priority 2006, published 2011).
Like-named read-outs stand apart in the source and are kept apart here.

Key:
celastrol signature = test: Connectivity Map query with the celastrol signature; assay type: cell-based, human; parameters: key to celastrol score (connectivity score): connectivity score, based on Kolmogorov-Smirnov statistic
Excerpt: (§1) Indeed, a major challenge in cell-based chemical biology and chemical genomics is the identification of compounds' targets (Gardner et al., 2003). We hypothesized that gene expression signatures could be used to identify compound action based on the similarity of such compound-induced signatures to signatures of existing drugs of known mechanism. We therefore employed a collection of gene expression profiles of drug-treated cell lines that was developed in our lab, termed the Connectivity Map (Lamb et al., 2006). This database comprises 453 genome-wide Affymetrix expression profiles derived from the treatment of human cell lines with 164 small molecules, primarily FDA-approved drugs. A 6 hr treatment time was chosen in an attempt to capture the primary, and potentially mechanistic, effects of the compounds rather than the downstream phenotypic consequences.
(§2) In order to use the Connectivity Map to gain insight into celastrol and gedunin function, we first defined a gene expression signature of celastrol and gedunin activity. The expression signatures of celastrol and gedunin were derived by expression profiling of RNA from LNCaP cells treated with celastrol (1.25 μM), gedunin (20 μM), and vehicle (DMSO) for 6 hr; signatures were defined using comparative marker selection to identify transcripts that distinguished between the compound- and vehicle-treated profiles by the signal-to-noise (SNR) metric. The enrichment of these signatures in the gene expression profiles of the Connectivity Map database was then assessed using a gene enrichment metric, the connectivity score, based on the Kolmogorov-Smirnov statistic (Lamb et al., 2003).
(§3) The celastrol and gedunin signatures were developed from RMA-processed microarray data from LNCaP cells treated with 1.25 μM celastrol or 20 μM gedunin for 6 hours. Comparative marker selection was used to identify markers that distinguished celastrol- and/or gedunin-treated samples from vehicle-treated samples by the median SNR (Golub et al., 1999). The top 50 markers that increased and decreased relative to vehicle-treated controls were used as the signatures.
(§4) The current version of the Connectivity Map data set (build01) contains genome-wide expression data for 453 treatment and vehicle control pairs, representing 164 distinct small molecules. Cell treatments and Affymetrix profiling were predominantly carried out in MCF7 cells with 6 hr treatments as detailed (Table 4) (Lamb et al., 2006). Enrichment of the induced and repressed genes of a signature within each Connectivity Map treatment profile was estimated with a metric based on the Kolmogorov-Smirnov statistic as described (Lamb et al., 2003, Lamb et al., 2006). Connectivity Map data are available at www.broad.mit.edu/cmap/ and GEO (accession number GSE5258).
(§5) For the celastrol and gedunin signatures, RMA-processed data was filtered and thresholded (min fold change=2, min absolute change=50, floor=10, ceiling=16000). Comparative marker selection (GenePattern) was used to identify markers that distinguished celastrol- and/or gedunin-treated samples from vehicle-treated samples by the median SNR. The top fifty markers that increased and decreased relative to vehicle treated controls were used as the celastrol, gedunin, or joint celastrol/gedunin signatures.
(§6) The current version of The Connectivity Map dataset (build01) contains genome-wide expression data for 453 treatment and vehicle control pairs, representing 164 distinct small molecules. Cell treatments were predominantly carried out in the MCF7 cell line for 6 h as detailed in Table 4. Affymetrix profiling was then carried out as described (Lamb et al., 2006).

gedunin signature = test: Connectivity Map query with the gedunin signature; assay type: cell-based, human; parameters: key to gedunin score (connectivity score): connectivity score, based on Kolmogorov-Smirnov statistic
Excerpt: as §1, §2, §3, §4, §5, §6

[1] = enrichment of the celastrol signature (1.25 μM celastrol at 6 h, LNCaP) in the compound's Connectivity Map profiles, 6 hr treatment
[2] = enrichment of the gedunin signature (20 μM gedunin at 6 hours, LNCaP) in the compound's Connectivity Map profiles, 6 hr treatment
[3] = rank by celastrol score among 164 Connectivity Map compounds
[4] = rank by gedunin score among 164 Connectivity Map compounds

Structure (SMILES)	celastrol score (connectivity score) (celastrol signature; [1])	gedunin score (connectivity score) (gedunin signature; [2])	other results
CC(=O)Oc1ccccc1C(=O)O [acetylsalicylic acid]	0.154	0	
C[C@]12CC[C@@H]3c4ccc(O)cc4CC[C@H]3[C@@H]1CC[C@H]2O [alpha-estradiol]	−0.066	0.045	
CN(C)CCC=C1c2ccccc2CCc2ccccc21 [amitriptyline]	0	0	
CCCCC/C=C\C/C=C\C/C=C\C/C=C\CCCC(=O)O [arachidonic acid]	0	−0.222	
Cn1cnc([N+](=O)[O-])c1Sc1ncnc2nc[nH]c12 [azathioprine]	0.552	0.361	
NC(CO)C(=O)NNCc1ccc(O)c(O)c1O (centres unmarked) [benserazide]	0	−0.441	
Cc1ccc2c(c1)C(=O)C1(O)CCN(c3ccccc3)C1=N2 (centres unmarked) [blebbistatin]	0	0	celastrol rank (celastrol signature; [3]): 87; gedunin rank (gedunin signature; [4]): 107
CCCC(=O)Nc1ncnc2c1ncn2[C@@H]1O[C@@H]2COP(=O)(O)O[C@H]2[C@H]1OC(=O)CCC [bucladesine]	0	−0.144	
O=C(/C=C/c1ccc(O)c(O)c1)c1ccc(O)cc1O [butein]	0.295	0.45	
Clc1ccc(C(c2ccc(Cl)cc2)n2cc[n+](CC(OCc3ccc(Cl)cc3Cl)c3ccc(Cl)cc3Cl)c2)cc1 (centres unmarked) [calmidazolium]	0.334	0.619	
NC(=O)N1c2ccccc2C=Cc2ccccc21 [carbamazepine]	0.339	0.407	
Cc1ccc(-c2cc(C(F)(F)F)nn2-c2ccc(S(N)(=O)=O)cc2)cc1 [celecoxib]	−0.01	0.114	
CN(C)CCCN1c2ccccc2Sc2ccc(Cl)cc21 [chlorpromazine]	0.08	0.218	
CCCNC(=O)NS(=O)(=O)c1ccc(Cl)cc1 [chlorpropamide]	0	0	
CCOC(=O)C(C)(C)Oc1ccc(Cl)cc1 [clofibrate]	0	0	
Clc1ccccc1C(c1ccccc1)(c1ccccc1)n1ccnc1 [clotrimazole]	0.557	0.577	
[Cl][Co][Cl] [cobalt chloride]	0.269	0.1	celastrol rank (celastrol signature; [3]): 48; gedunin rank (gedunin signature; [4]): 72
COc1cc2c(c(OC)c1OC)-c1ccc(OC)c(=O)cc1[C@@H](NC(C)=O)CC2 [colchicine]	0.391	0.192	
C=C[C@@]1(C)CC(=O)[C@]2(O)[C@@]3(C)[C@@H](O)CCC(C)(C)[C@@H]3[C@H](O)[C@H](OC(C)=O)[C@@]2(C)O1 [colforsin]	0	0	
O=S(=O)([O-])[O-].[Cu+2] [copper sulfate]			celastrol rank (celastrol signature): 68; celastrol score (connectivity score) (celastrol signature): 0.113; gedunin rank (gedunin signature): 78; gedunin score (connectivity score) (gedunin signature): 0.066

Structure (SMILES)	celastrol score (connectivity score) (celastrol signature; [1])	gedunin score (connectivity score) (gedunin signature; [2])	other results
C=C1[C@@H](C)[C@H]2[C@H](Cc3ccccc3)NC(=O)[C@]23OC(=O)/C=C/[C@H](O)CCC[C@@H](C)C/C=C/[C@H]3[C@@H]1O [cytochalasin B]	0	0.476	celastrol rank (celastrol signature; [3]): 125; gedunin rank (gedunin signature; [4]): 22
Nc1ncn([C@H]2C[C@H](O)[C@@H](CO)O2)c(=O)n1 [decitabine]	0	0	
CC(=O)N(O)CCCCCNC(=O)CCC(=O)N(O)CCCCCNC(=O)CCC(=O)N(O)CCCCCN [deferoxamine]	−0.175	0	
CN[C@H]1CCc2cc(OC)c(OC)c(OC)c2-c2ccc(OC)c(=O)cc21 [demecolcine]	0	0	
C[C@@H]1C[C@H]2[C@@H]3CCC4=CC(=O)C=C[C@]4(C)[C@@]3(F)[C@@H](O)C[C@]2(C)[C@@]1(O)C(=O)CO [dexamethasone, reference compound]	0	0	
O=C(O)Cc1ccccc1Nc1c(Cl)cccc1Cl [diclofenac]	−0.197	−0.165	
COC(=O)CNC(=O)C(=O)OC [dimelhyloxalylglycine]	0.326	0	celastrol rank (celastrol signature; [3]): 44; gedunin rank (gedunin signature; [4]): 119
CC/C=C\C/C=C\C/C=C\C/C=C\C/C=C\C/C=C\CCC(=O)OCC [docosahexaenoic acid ethyl ester]	0.572	0.493	celastrol rank (celastrol signature; [3]): 14; gedunin rank (gedunin signature; [4]): 21
NCCc1ccc(O)c(O)c1 [dopamine]	−0.596	0	
C[C@H]1c2cccc(O)c2C(=O)C2=C(O)[C@]3(O)C(=O)C(C(N)=O)=C(O)[C@@H](N(C)C)[C@@H]3[C@@H](O)[C@@H]21 [doxycycline]	0	0	
C[C@]12CC[C@@H]3c4ccc(O)cc4CC[C@H]3[C@@H]1CC[C@@H]2O [estradiol]	0.017	−0.166	
C=C1C[C@@H]2[C@H](CC[C@]3(C)C(=O)CC[C@@H]23)[C@@]2(C)C=CC(=O)C=C12 [exemestane]	0.427	0	
CC1=C(CC(=O)O)c2cc(F)ccc2/C1=C\c1ccc(S(C)(=O)=O)cc1 [exisulind]	−0.038	−0.277	
O=S(=O)(c1cccc2cnccc12)N1CCCNCC1 [fasudil]	0	0	
CCOC(=O)C1=C(C)NC(C)=C(C(=O)OC)C1c1cccc(Cl)c1Cl (centres unmarked) [felodipine]	0.171	0.171	
O=c1c(O)c(-c2ccc(O)c(O)c2)oc2cc(O)ccc12 [fisetin]	0	0	
C[C@]12CCC(=O)C=C1CC[C@H]1[C@@H]3CC[C@](O)(C(=O)CO)[C@@]3(C)C[C@H](O)[C@@]12F [fludrocortisone]	0	0	
O=C(O)c1ccccc1Nc1cccc(C(F)(F)F)c1 [flufenamic acid]	0	0	
OCCN1CCN(CCCN2c3ccccc3Sc3ccc(C(F)(F)F)cc32)CC1 [fluphenazine]	0.481	0.34	
C[C@]12CC[C@@H]3c4ccc(O)cc4C[C@@H](CCCCCCCCC[S+]([O-])CCCC(F)(F)C(F)(F)F)[C@H]3[C@@H]1CC[C@@H]2O (some centres unmarked) [fulvestrant]	0.069	0.19	
